Data set [1] relates to E-cadherin expression in SW620inv colon cancer cells. The data set can be described thus: Quantitative in-cell Western (ICW), E-cadherin restoration in SW620inv cells. The format is cell-based. Particulars: 24 hours, 3 biological replicates. As for the experimental part:
SW620inv cells were used for ICW analysis as described (Stoops, S. L., et al. (2011) ACS Chemical Biology 6, 452-465).
SW620 cells (ATCC p92) were grown in RPMI+10% FBS+P/S to sub-confluence. The cells were washed with PBS, trypsinized, and re-suspended in serum-free RPMI at a concentration of one million cells/mL. The cells were then added to the upper chamber of 24 mm transwell (Costar#3428) that had been coated with 400 μL of 2.5 mg/mL matrigel (BD Biosciences). One milliliter of 10% FBS+P/S was added to the lower chamber. The cells were incubated at 37° C. for 72 hours in order to allow the cells to invade. Four biological replicate transwells were prepared for invasion. […] These invasive cells were then analyzed by western blot, matrigel invasion assay, and immunofluorescence for E-cadherin levels with and without TSA treatments. […]
Compounds of the present invention restore E-cadherin protein to the surface of selected aggressive colon and lung cancer cells. […] The kinetics of altered E-cadherin expression in SW620inv cells was determined by quantitative Western blot, using the Odyssey imaging system. […]
Referring to FIG. 2B and FIG. 2C, concentration dependent changes in E-cadherin expression following 24 hours of Compound 13 (259Y) treatment as determined by quantitative in cell Western (ICW) are shown.

Data set [2] relates to E-cadherin mRNA in SW620inv cells. Nature of the data set: qPCR of E-cadherin specific mRNA, SW620inv cells. The format is cell-based. The settings on record: 10 μM, 6 hours post-treatment, relative to DMSO. For orientation: In qPCR the cycle at which signal appears reflects the starting amount.
Data set [3] deals with E-cadherin expression in SW620 cells. Nature of the data set: E-cadherin expression, in-cell Western (ICW), SW620 cells. Format: cell-based. The settings on record: Homo sapiens. A digest of the protocol:
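SW620 cells were treated with compound for 24 h in RPMI 1640 (single-point at 10 μM; EC50 also determined), in quadruplicate. After methanol fixation, in-cell Western with anti-E-cadherin and anti-α-tubulin primaries and IRDye 800/700 secondaries. Read on an Odyssey IR imager.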

Data set [4] in a line: Clearance in human microsomes. The format is in vitro ADME. As for the experimental part:
(§1) The potency and efficacy of Compound 13 was evaluated in vivo. For these studies, the pharmacokinetics of Compound 13 were first evaluated in vitro and in vivo (FIG. 14).

Data set [5] in a line: IV pharmacokinetics in Sprague-Dawley rats. Format: in vivo. Particulars: IV dosing. As for the experimental part: as §1

Data on one molecule can be found in patent US9783510B2, “Small molecule mediated transcriptional induction of E-cadherin” (Vanderbilt University, priority 2014, dated 2017).

For orientation: EC50 means the concentration at which the effect is half-maximal. Lower therefore signals greater potency. By fold induction is commonly meant the signal under treatment as a multiple of the control signal. Low readings indicate little rise in signal, high ones a large rise in signal. In turn, `O=C(NCCCNC(=O)c1cccnc1O)c1cc(-c2ccccc2)on1` [Compound 13, N-(3-(2-hydroxynicotinamido)propyl)-5-phenylisoxazole-3-carboxamide] gave an EC50 in data set [1] of 2.22 µM. Also, the “increase of E-cadherin specific mRNA” value in data set [2] was 27 fold. The same molecule had a fold induction at 10 µM in data set [3] (SW-620, 24 h, change in expression level of E-cadherin in response to 10 μM compound, 24 hours, SW620 cells) of 5.23. In data set [3] (SW-620, inducement of E-cadherin expression in SW620 cells), this molecule returned an EC50 of 4.1 µM. Further, the clearance result in data set [4] is listed as “minimal”. Besides, in data set [5], the clearance result is listed as “moderate”, the elimination half-life result is “long” and the volume of distribution entry is “moderate”.
